Measurements taken from patent publication US7772183B2 (Bristol-Myers Squibb Company, priority 2005, dated 2010).
pEC50, pIC50: −log10 of the molar value.

Experiments:
[1] = molecular target: T1, HCV NS3/4A protease complex, BMS strain (UniProt P27958, species not given/STRAIN_BMS); experiment: FRET peptide assay to monitor HCV NS3/4A proteolytic activity (BMS strain); type: biochemical, Hepatitis C virus (genotype 1a); conditions: NS3/4A BMS strain; read-out: IC50 Range
T1 construct: said of H77 and J4L6S; fused on or other part: A three-lysine solubilising tail at the C-terminus of NS4A and a His tag (pET21b, Ni-NTA purification)
T1 sequence (P27958 1027-1657, change not shown, one chain of several): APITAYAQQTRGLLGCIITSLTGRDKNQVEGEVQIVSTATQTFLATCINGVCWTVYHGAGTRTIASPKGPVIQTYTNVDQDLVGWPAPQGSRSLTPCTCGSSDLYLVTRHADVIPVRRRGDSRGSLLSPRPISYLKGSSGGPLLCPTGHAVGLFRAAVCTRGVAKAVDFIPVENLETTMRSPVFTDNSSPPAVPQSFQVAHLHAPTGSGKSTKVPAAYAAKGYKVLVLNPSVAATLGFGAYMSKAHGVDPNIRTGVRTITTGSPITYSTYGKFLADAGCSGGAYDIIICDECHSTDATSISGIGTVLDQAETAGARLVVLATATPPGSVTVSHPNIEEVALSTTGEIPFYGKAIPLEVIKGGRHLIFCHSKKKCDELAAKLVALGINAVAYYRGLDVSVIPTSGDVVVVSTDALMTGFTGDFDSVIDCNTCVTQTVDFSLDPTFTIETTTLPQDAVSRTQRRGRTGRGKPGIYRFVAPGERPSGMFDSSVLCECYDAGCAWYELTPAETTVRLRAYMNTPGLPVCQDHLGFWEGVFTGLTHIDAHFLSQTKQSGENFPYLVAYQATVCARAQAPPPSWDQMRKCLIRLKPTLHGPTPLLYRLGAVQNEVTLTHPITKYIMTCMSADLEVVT
Summary of the method: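 Recombinant NS3/4A complexes (aa 1027–1711) from H77 (1a) and J4L6S (1b) carried a three-lysine tail, C1711G and C1454S. They were expressed in E. coli BL21(DE3) (0.5 mM IPTG, 22 h, 20 °C), then purified by Ni-NTA and Superdex-S200 to >90% purity. The BMS strain was a genotype 1a clone from patient serum.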

[2] = tested on: HCV replicon in HUH-7 cells; experiment: HCV replicon FRET assay; type: cell-based, Hepatitis C virus (strain 1b); conditions: Hepatitis C virus, Huh-7; HCV replicon, for compounds tested; read-out: EC50 Range
Summary of the method: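 HUH-7 cells stably carrying a genotype 1b subgenomic HCV replicon (NS3–NS5B) treated with compound for 4 days at 37° C, 0.5% DMSO final. Cytotoxicity (CC50) read by alamar Blue; cells then lysed with 10 μM FRET HCV protease peptide substrate and kinetically read (340/490 nm) for EC50.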

SMILES | pIC50 [1] | melting point | pEC50 [2]
CC(C)(C)OC(=O)N[C@H]1CCCCC/C=C\[C@@H]2C[C@@]2(C(=O)NS(=O)(=O)C2CC2)NC(=O)[C@@H]2C[C@@H](OC(=O)c3cccc(Cl)c3)CN2C1=O [Compound 22, 18-(3-chorobenzoyloxy)-14-tert-butoxycarbonylamino-4-cyclopropylsulfonylaminocarbonyl-2,15-dioxo-3,16-diazatricyclo-[14.3.0.0^4,6]-nonadec-7-ene] | > 7.00 | 154 to 156 °C | > 7.00
CC(C)(C)OC(=O)N[C@H]1CCCCC/C=C\[C@@H]2C[C@@]2(C(=O)NS(=O)(=O)C2CC2)NC(=O)[C@@H]2C[C@@H](OC(=O)c3ccc4nccnc4c3)CN2C1=O [Compound 24, 18-(6-quinoxalinecarbonyloxy)-14-tert-butoxycarbonylamino-4-cyclopropylsulfonylaminocarbonyl-2,15-dioxo-3,16-diazatricyclo-[14.3.0.0^4,6]-nonadec-7-ene] | > 7.00 | 158 to 160 °C | > 7.00
CC(C)(C)OC(=O)N[C@H]1CCCCC/C=C\[C@@H]2C[C@@]2(C(=O)NS(=O)(=O)C2CC2)NC(=O)[C@@H]2C[C@@H](OC(=O)c3ccc4c(c3)OCCO4)CN2C1=O [Compound 25, 18-(2,3-dihydro-1,4-benzodioxine-6-carbonyloxy)-14-tert-butoxycarbonylamino-4-cyclopropylsulfonylaminocarbonyl-2,15-dioxo-3,16-diazatricyclo-[14.3.0.0^4,6]-nonadec-7-ene] | > 7.00 | 199 to 201 °C | > 7.00
CC(C)(C)OC(=O)N[C@H]1CCCCC/C=C\[C@@H]2C[C@@]2(C(=O)NS(=O)(=O)C2CC2)NC(=O)[C@@H]2C[C@@H](OC(=O)c3cnccn3)CN2C1=O [Compound 27, 18-(pyrazinecarbonyloxy)-14-tert-butoxycarbonylamino-4-cyclopropylsulfonylaminocarbonyl-2,15-dioxo-3,16-diazatricyclo-[14.3.0.0^4,6]-nonadec-7-ene] | > 7.00 | 150 to 152 °C | < 6.00
CC(C)(C)OC(=O)N[C@H]1CCCCC/C=C\[C@@H]2C[C@@]2(C(=O)NS(=O)(=O)C2CC2)NC(=O)[C@@H]2C[C@@H](OC(=O)c3ccccn3)CN2C1=O [Compound 28, 18-(picolinoyloxy)-14-tert-butoxycarbonylamino-4-cyclopropylsulfonylaminocarbonyl-2,15-dioxo-3,16-diazatricyclo-[14.3.0.0^4,6]-nonadec-7-ene] | > 7.00 | 164 to 166 °C | < 6.00
CC(C)(C)OC(=O)N[C@H]1CCCCC/C=C\[C@@H]2C[C@@]2(C(=O)NS(=O)(=O)C2CC2)NC(=O)[C@@H]2C[C@@H](OC(=O)c3ccc(F)cc3)CN2C1=O [Compound 29, 18-(4-fluorobenzoyloxy)-14-tert-butoxycarbonylamino-4-cyclopropylsulfonylaminocarbonyl-2,15-dioxo-3,16-diazatricyclo-[14.3.0.0^4,6]-nonadec-7-ene] | > 7.00 | 154 to 156 °C | > 7.00
CC(C)(C)OC(=O)N[C@H]1CCCCC/C=C\[C@@H]2C[C@@]2(C(=O)NS(=O)(=O)C2CC2)NC(=O)[C@@H]2C[C@@H](OC(=O)c3cccnc3)CN2C1=O [Compound 30, 18-(nicotinoyloxy)-14-tert-butoxycarbonylamino-4-cyclopropylsulfonylaminocarbonyl-2,15-dioxo-3,16-diazatricyclo-[14.3.0.0^4,6]-nonadec-7-ene] | > 7.00 | 157 to 159 °C | < 6.00
COC(=O)c1ccc(C(=O)O[C@@H]2C[C@H]3C(=O)N[C@]4(C(=O)NS(=O)(=O)C5CC5)C[C@H]4/C=C\CCCCC[C@H](NC(=O)OC(C)(C)C)C(=O)N3C2)cc1 [Compound 31] | > 7.00 | 154 to 156 °C | > 7.00
